In brackets after ≈: the same amount, converted by molar mass.

A short description of the data set: FFA solubility at different formulation pH at constant PS20 concentration, fit to modified Henderson-Hasselbalch equation. It counts as physicochemical. Conditions: constant of the 'pH term' of the FFA solubility model (Equation 1); for solubility: formulation containing PS20, aqueous with cosolvent or surfactant or cyclodextrin, read-out: Solubility of the non-ionized FFA (β1); for pKa: formulation containing polysorbate 20 (PS20), read-out: Experimentally determined pKa (β2). The method, then:
To create the model, first, FFA solubility was measured at different formulation pH's at a constant PS20 concentration. […] Second, FFA solubility was measured at different PS20 concentrations at a constant pH.

Turning to `CCCCCCCCCCCC(=O)O` [Lauric (C12) Acid, lauric acid], the solubility (in general, how much of the substance goes into solution per volume) amounted to 9.97 µg/mL (≈ 49.8 µM) and the pKa – broadly, the pH at which an ionisable group is half protonated – turned out to be 5.71.
For `CCCCCCCCCCCCCC(=O)O` [Myristic (C14) Acid, myristic acid], the solubility amounted to 3.87 µg/mL (≈ 16.9 µM) and the pKa is 6.67.

Values taken from patent publication US12691178B2, “Polysorbate mixtures having modified fatty acid ester distribution” (Genentech, Inc., priority 2020, dated 2026).
